These molecules were tested on Brown Planthoppers (Nilaparvata lugens) (assay: Effect against brown planthoppers (foliar spray on rice seedlings)). Details: Nilaparvata lugens, foliar, 168 h, read-out: % Mortality after 7 days.
Format: in vivo
Procedure: Effect Against Brown Planthoppers (Nilaparvata lugens)
An emulsifiable concentrate of the compound of the invention, prepared in the same manner as Example 112 below, was diluted with water to a concentration of 500 ppm and sprayed over the stems and leaves of rice seedlings in the 2-leaf stage at the rate of 10 ml per paper pot. Water was put in test tubes and the treated rice seedlings were placed therein. Then, 10 brown planthopper larvae were released in each tube, which was then capped with an aluminum cap. The test tubes were maintained in an incubator at 25° C. and the dead insects were counted 7 days after release. The % mortality was calculated using the following formula. [formula]

| SMILES | mortality at 500 µg/mL |
| --- | --- |
| CNC(=C[N+](=O)[O-])N(C)Cc1ccc(Br)nc1 [Compound 100, 1-[N-(6-Bromo-3-pyridylmethyl)-N-methyl]amino-1-methylamino-2-nitroethylene] | 100% |
| CN(C=O)C(=C[N+](=O)[O-])N(C)Cc1cnc(Cl)s1 [Compound 121, 1-[N-(2-Chloro-5-thiazolylmethyl)-N-methyl)amino-1-(N-formyl-N-methyl)amino-2-nitroethylene] | 100% |
| CN(C)NC(=C[N+](=O)[O-])NCc1ccc(Cl)nc1 [Compound 52, 1-(6-Chloro-3-pyridylmethyl)amino-1-(2,2-dimethyl-1-hydrazino)-2-nitroethylene] | 100% |
| CNC(=C[N+](=O)[O-])N(C)Cc1ccc(F)nc1 [Compound 98] | 100% |
| O=[N+]([O-])C=C(NCc1ccc(Cl)nc1)NCc1ccc(Cl)nc1 [Compound 89, 1,1-bis(6-Chloro-3-pyridylmethyl)amino-2-nitro-ethylene] | 100% |
| CN(C)C(=C[N+](=O)[O-])N(C=O)Cc1cnc(Cl)s1 [Compound 130, 1-[N-(2-Chloro-5-thiazolylmethyl)-N-formyl]amino-1-dimethylamino-2-nitroethylene] | 100% |
| CN(C)C(=C[N+](=O)[O-])N(C)Cc1ccc(Cl)nc1 [Compound 58, 1-[N-(6-Chloro-3-pyridylmethyl)-N-methyl]amino-1-dimethylamino-2-nitroethylene] | 100% |
| O=[N+]([O-])C=C(NCc1cnc(Cl)s1)NCc1cnc(Cl)s1 [Compound 105, 1,1-bis(2-chloro-5-thiazolylmethyl)amino-2-nitroethylene] | 100% |
| CC(C)N(Cc1ccc(Cl)nc1)C(N)=C[N+](=O)[O-] [Compound 49, 1-Amino-1-(N-(6-chloro-3-pyridylmethyl)-N-i-propyl]amino-2-nitroethylene] | 100% |
| CN(C)C(=C[N+](=O)[O-])N(C=O)Cc1ccc(Cl)nc1 [Compound 113, 1-[N-(6-Chloro-3-pyridylmethyl)-N-formyl]amino-1-dimethylamino-2-nitroethylene] | 100% |
| CCCN(Cc1ccc(Cl)nc1)C(=C[N+](=O)[O-])NC [Compound 76, 1-[N-(6-Chloro-3-pyridylmethyl)-N-n-propyl]amino-1-methylamino-2-nitroethylene] | 100% |
| CNC(NCc1ccc(Cl)nc1)=C(C(=S)NS(C)(=O)=O)[N+](=O)[O-] [Compound 117] | 100% |
| CN(C)C(=C[N+](=O)[O-])NCc1cccnc1 [Compound 19, 1-Dimethylamino-1-(3-pyridylmethyl)amino-2-nitroethylene] | 100% |
| NNC(=C[N+](=O)[O-])NCc1ccc(Cl)nc1 [Compound 51, 1-(6-Chloro-3-pyridylmethyl)amino-1-hydrazino-2-nitroethylene] | 100% |
| CN(C=O)C(=C[N+](=O)[O-])N(C)Cc1ccc(Cl)nc1 [Compound 110, 1-[N-(6-Chloro-3-pyridylmethyl)-N-methyl]amino-1-(N-formyl-N-methyl)amino-2-nitroethylene] | 100% |
| CNC(=C[N+](=O)[O-])N(C=O)Cc1cnc(Cl)s1 [Compound 124, 1-[N-(2-chloro-5-thiazolylmethyl)-N-formyl]amino-1-methylamino-2-nitroethylene] | 100% |
| CCN(C)C(=C[N+](=O)[O-])NCc1ccc(Cl)nc1 [Compound 50, 1-(6-Chloro-3-pyridylmethyl)amino-1-(N-ethyl-N-methyl)amino-2-nitroethylene] | 100% |

Same assay, conditions: Nilaparvata lugens, foliar, 168 h; emulsifiable concentrate diluted with water to 500 ppm, sprayed on rice seedlings (2-leaf stage), 10 ml per paper pot; 10 larvae per tube; 25° C.; dead insects counted 7 days after release; read-out: % Mortality after 7 days

| SMILES | mortality at 500 µg/mL |
| --- | --- |
| CNC(=C[N+](=O)[O-])N(C)Cc1ccc(OC)nc1 [Compound 61, 1-[N-(6-Methoxy-3-pyridylmethyl)-N-methyl]amino-1-methylamino-2-nitroethylene] | 100% |
| CNC(=C[N+](=O)[O-])N(C)c1ccc(OC)nc1 [Compound 108, 1-[N-(6-Methoxy-3-pyridyl)-N-methyl]amino-1-1-methyl-amino-2-nitroethylene] | 100% |
| CNC(=C[N+](=O)[O-])N(C)Cc1cscn1 [Compound 88, 1-Methylamino-1-[N-methyl-N-(4-thiazolyl)methyl]-amino-2-nitroethylene] | 100% |
| CCOC(=O)C(=C(NC)N(C)c1ccc(Cl)nc1)[N+](=O)[O-] [Compound 109, 1-[N-(6-Chloro-3-pyridyl)-N-methyl]amino-1-methylamino-2-ethoxycarbonyl-2-nitroethylene] | 100% |
| CN(C)C(=C[N+](=O)[O-])Nc1ccc(Cl)nc1 [Compound 107, 1-(6-Chloro-3-pyridyl)amino-1-dimethylamino-2-nitrothylene] | 100% |
| CCNC(=C[N+](=O)[O-])N(C)c1ccc(Cl)nc1 [Compound 85, 1-[N-(6-chloro-3-pyridyl)-N-methyl]amino-1-ethyl-amino-2-nitroethylene] | 100% |
| CCN(C(=C[N+](=O)[O-])NC)c1ccc(Cl)nc1 [Compound 90, 1-[N-(6-Chloro-3-pyridyl)-N-ethyl]amino-1-methyl-amino-2-nitroethylene] | 100% |
| CCCCN(C(=C[N+](=O)[O-])NC)c1ccc(Cl)nc1 [Compound 92, 1-[N-n-Butyl-N-(6-chloro-3-pyridyl)]amino-1-methyl-amino-2-nitroethylene] | 100% |
| CNC(=C[N+](=O)[O-])Nc1ccc(Cl)nc1 [Compound 96, 1-(6-Chloro-3-pyridyl)amino-1-methylamino-2-nitro-ethylene] | 100% |
| CN(C)C(=C[N+](=O)[O-])NCc1ccc(Cl)cc1 [Compound 71, 1-(4-Chlorobenzyl)amino-1-dimethylamirxo-2-nitroethylene] | 100% |
| CNC(=C[N+](=O)[O-])N(Cc1cccnc1)OC [Compound 64, 1-[N-methoxy-N-(3-pyridylmethyl)]amino-1-methyl-amino-2-nitroethylene] | 100% |
| CN(C=O)C(=C[N+](=O)[O-])N(C)Cc1cccnc1 [Compound 65, 1-(N-Formyl-N-methyl)amino-1-[N-methyl-N-(3-pyridyl-methyl)]amino-2-nitroethylene] | 100% |

Same assay, conditions: emulsifiable concentrate diluted with water to 500 ppm, sprayed on rice seedlings (2-leaf stage), 10 ml per paper pot; 10 larvae per tube; 25° C.; dead insects counted 7 days after release

| SMILES | % Mortality after 7 days |
| --- | --- |
| CCCCNC(=C[N+](=O)[O-])N(C)Cc1cccnc1 [Compound 34, 1-n-Butylamino-1-[N-methyl-N-(3-pyridylmethyl)]amino-2-nitroethylene] | 100% |
| CNC(=C[N+](=O)[O-])N(Cc1cccnc1)CC(OC)OC [Compound 32, 1-[N-(2-Dimethoxyethyl)-N-(3-pyridylmethyl)]amino-1-methylamino-2-nitroethylene] | 100% |
| CCCN(Cc1cccnc1)C(=C[N+](=O)[O-])NC [Compound 42, 1-Methylamino-1-[N-(n-propyl)-N-(3-pyridylmethyl)]amino-2-nitroethylene] | 100% |
| CCCCN(C(=C[N+](=O)[O-])NC)c1cccnc1 [Compound 43] | 100% |
| CCN(Cc1ccc(Cl)nc1)C(=C[N+](=O)[O-])NC [Compound 60, 1-[N-(6-Chloro-3-pyridylmethyl)-N-ethyl]amino-1-methylamino-2-nitroethylene] | 100% |
| CNC(=C[N+](=O)[O-])N(Cc1ccccc1)Cc1cccnc1 [Compound 44, 1-[N-Benzyl-N-(3-pyridylmethyl)]amino-1-methylamino-2-nitroethylene] | 100% |
